Data from patent US20090143279A1 (priority 2007, published 2009).
Read-outs that look alike come from different tables or passages of the source.

Legend:
[1] = tested on: cytochrome c; type: cell-based, mouse
[2] = tested on: nuOXPHOS transcripts; type: cell-based, mouse
[3] = tested on: cellular dehydrogenase activity
[4] = tested on: mitochondrial membrane potential; type: cell-based, mouse
[5] = tested on: OXPHOS gene expression; type: cell-based, mouse
[6] = tested on: reactive oxygen species; type: cell-based, mouse
[7] = tested on: C2C12 myotubes
[8] = tested on: mtOXPHOS transcripts; type: cell-based, mouse
[9] = normalized composite Z-score vs mock-treated (DMSO) wells, Conc 20 μM
[10] = Table 6, C2C12 myotubes, 48 h, composite Z-score
[11] = composite Z-score vs DMSO, Conc 20 μM
[12] = composite Z-score vs mock-treated (DMSO) wells, Conc 20 μM
[13] = Conc 20 μM, normalized score vs mock-treated (DMSO) wells
[14] = composite Z-score vs DMSO, Conc 4.42 μM

C=C1C(N)CC2CC1C2(C)C (stereo not drawn) [3-amino-beta-pinene]
cyt c [1, 9]: 0.460 | nucOX [2, 9]: −1.341 | MTT [3, 9]: −0.906 | ΔΨm [4, 9]: −0.519 | GE-HTS [5, 9]: −1.376 | ROS [6, 9]: 0.421 | Viability [7, 9]: −0.108 | mitoOX [8, 9]: −1.138

CC(=O)C(=Cc1ccccc1)CC(=O)O [3-benzylidenyl-levulinic acid]
cyt c (composite Z-score) [1]: −0.165 | nucOX (composite Z-score) [2]: −0.553 | MTT (composite Z-score) [3]: −0.665 | ΔΨm (composite Z-score) [4]: −0.170 | GE-HTS (composite Z-score) [5]: −0.639 | ROS (composite Z-score) [6]: 0.382 | Viability (composite Z-score) [7]: −0.431 | mitoOX (composite Z-score) [8]: −0.647

CC(=O)O[C@H]1C[C@@H](O)C(C)(C)[C@@H]2C[C@@H](OC(C)=O)[C@]3(C)[C@H](CC[C@@]4(C)[C@@H](c5ccoc5)OC(=O)[C@H]5O[C@@]534)[C@@]12C [3-deacetylkhivorin]
cyt c [1, 9]: −0.600 | nucOX [2, 9]: −0.823 | MTT [3, 9]: −0.317 | ΔΨm [4, 9]: 0.274 | GE-HTS [5, 9]: −0.661 | ROS [6, 9]: 0.619 | Viability [7, 9]: 0.398 | mitoOX [8, 9]: −0.272

COc1ccc2c(c1)OCC(Cc1ccc(OC)c(OC)c1)C2O (stereo not drawn) [3-deshydroxysappanol trimethyl ether, reference compound]
cyt c [1, 9]: −0.948 | nucOX [2, 9]: 0.557 | MTT [3, 9]: −0.416 | ΔΨm [4, 9]: 0.033 | GEHTS_Zscore [5, 10]: 1.970 | GE-HTS [5, 9]: 0.465 | ROS Zscore [6, 10]: 1.3852 | ROS [6, 9]: 1.385 | Viability [7, 9]: 0.416 | mitoOX [8, 9]: 0.224

Cc1cc(O)c(C)c(O)c1C(=O)O [3-methylorsellinic acid]
cyt c [1, 11]: 0.321 | nucOX [2, 11]: −1.318 | MTT [3, 11]: −1.253 | ΔΨm [4, 11]: −0.030 | GE-HTS [5, 11]: −1.005 | ROS [6, 11]: 0.860 | Viability [7, 11]: −0.494 | mitoOX [8, 11]: −0.108

Cn1c(=O)[nH]c(=O)c2[nH]cnc21 [3-methylxanthine]
cyt c [1, 11]: 0.692 | nucOX [2, 11]: −1.286 | MTT [3, 11]: −0.859 | ΔΨm [4, 11]: −0.149 | GE-HTS [5, 11]: −1.241 | ROS [6, 11]: 0.472 | Viability [7, 11]: 0.036 | mitoOX [8, 11]: −0.856

CC1CCC23CCC4(C)C5(C)CCC6C(C)(C)C(=O)CCC6(C)C5CCC4(OC2=O)C3C1C (stereo not drawn) [3-oxoursan (28-13)olide]
cyt c [1, 9]: 0.991 | nucOX [2, 9]: −1.228 | MTT [3, 9]: −1.871 | ΔΨm [4, 9]: −0.332 | GE-HTS [5, 9]: −1.322 | ROS [6, 9]: 1.010 | Viability [7, 9]: 0.638 | mitoOX [8, 9]: −1.205

CC1C(=NO)CC2CC1C2(C)C (stereo not drawn) [3-pinanone oxime]
cyt c [1, 9]: 0.014 | nucOX [2, 9]: 0.031 | MTT [3, 9]: −0.210 | ΔΨm [4, 9]: −0.415 | GE-HTS [5, 9]: 0.141 | ROS [6, 9]: −0.152 | Viability [7, 9]: −0.344 | mitoOX [8, 9]: 0.386

CC(=O)c1ccc(O)c(CC=C(C)C)c1 [3-prenyl-4-hydroxyacetophenone]
cyt c [1, 11]: 0.220 | nucOX [2, 11]: 0.477 | MTT [3, 11]: −1.066 | ΔΨm [4, 11]: −0.010 | GE-HTS [5, 11]: 0.607 | ROS [6, 11]: 2.418 | Viability [7, 11]: −0.696 | mitoOX [8, 11]: 0.804

CC(=O)O[C@@H]1CC[C@@]2(C)C(C[C@@H](OC(C)=O)[C@@]3(C)C4=CC(=O)O[C@@H](c5ccoc5)[C@]4(C)CCC23)C1(C)C (stereo partly drawn) [3alpha-acetoxydihydrodeoxygedunin]
cyt c [1, 12]: 0.179 | nucOX [2, 12]: −1.123 | MTT [3, 12]: −1.653 | ΔΨm [4, 12]: 1.157 | GE-HTS [5, 12]: −0.987 | ROS [6, 12]: 2.371 | Viability [7, 12]: 0.781 | mitoOX [8, 12]: −0.584

CC(=O)O[C@@H]1CC2C(C)(C)[C@H](O)CC[C@]2(C)C2CC[C@@]3(C)[C@H](c4ccoc4)OC(=O)C4OC43[C@@]21C (stereo partly drawn) [3alpha-hydroxydeoxodihydrogedunin]
cyt c [1, 9]: 1.091 | nucOX [2, 9]: −0.832 | MTT [3, 9]: −1.072 | ΔΨm [4, 9]: −0.061 | GE-HTS [5, 9]: −0.892 | ROS [6, 9]: 1.207 | Viability [7, 9]: 0.065 | mitoOX [8, 9]: −0.857

CC(=O)O[C@H]1CC[C@]2(C)[C@H]3CC[C@@]4(C)[C@H](c5ccoc5)OC(=O)[C@H]5O[C@]54[C@]3(C)[C@H](OC(C)=O)C[C@H]2C1(C)C [3beta-acetoxydeoxodihydrogedunin]
cyt c [1, 12]: 0.759 | nucOX [2, 12]: −1.055 | MTT [3, 12]: −0.528 | ΔΨm [4, 12]: 0.254 | GE-HTS [5, 12]: −1.016 | ROS [6, 12]: 0.055 | Viability [7, 12]: 0.311 | mitoOX [8, 12]: −0.694

CC(=O)O[C@@H]1CC2C(C)(CC[C@H](O)C2(C)C)C2CC[C@]3(C)C(=CC(=O)O[C@H]3c3ccoc3)C21C (stereo partly drawn) [3beta-hydroxydeoxodihydrodeoxygedunin]
cyt c (composite Z-score) [1, 13]: 0.142 | nucOX (composite Z-score) [2, 13]: −0.849 | MTT (composite Z-score) [3, 13]: −0.656 | ΔΨm (composite Z-score) [4, 13]: 1.048 | GE-HTS (composite Z-score) [5, 13]: −0.747 | ROS (composite Z-score) [6, 13]: 1.488 | Viability (composite Z-score) [7, 13]: −1.397 | mitoOX (composite Z-score) [8, 13]: −0.359

CC(=O)OC1CC2C(C)(C)[C@@H](O)CC[C@]2(C)C2CC[C@]3(C)[C@H](c4ccoc4)OC(=O)[C@H]4O[C@]43[C@]12C (stereo partly drawn) [3beta-hydroxydeoxodihydrogedunin]
cyt c [1, 12]: 0.591 | nucOX [2, 12]: −0.648 | MTT [3, 12]: −0.540 | ΔΨm [4, 12]: 0.674 | GE-HTS [5, 12]: −0.585 | ROS [6, 12]: 0.170 | Viability [7, 12]: −0.364 | mitoOX [8, 12]: −0.302

C=CC(C1=CC(=O)C(OC)=CC1=O)c1ccc(OC)cc1 (stereo not drawn) [4,4′-dimethoxydalbergione]
cyt c [1, 12]: −1.432 | nucOX [2, 12]: −0.677 | MTT [3, 12]: −2.648 | ΔΨm [4, 12]: −0.993 | GE-HTS [5, 12]: −0.842 | ROS [6, 12]: −0.802 | Viability [7, 12]: −0.207 | mitoOX [8, 12]: −0.975

COc1ccc(-c2cc(=O)c3ccc(OC)cc3o2)cc1 [4,7-dimethoxyflavone]
cyt c [1, 9]: 0.031 | nucOX [2, 9]: 1.526 | MTT [3, 9]: −0.472 | ΔΨm [4, 9]: −0.795 | GE-HTS [5, 9]: 1.306 | ROS [6, 9]: 1.067 | Viability [7, 9]: −0.067 | mitoOX [8, 9]: 0.539

Cc1c(N)c(=O)n(-c2ccccc2)n1C [4-aminoantipyrine]
cyt c [1, 14]: 0.087 | nucOX [2, 14]: −0.041 | MTT [3, 14]: −1.470 | ΔΨm [4, 14]: −4.045 | GE-HTS [5, 14]: −0.182 | ROS [6, 14]: 0.564 | Viability [7, 14]: 0.530 | mitoOX [8, 14]: −0.450

NCCc1ccc(S(=O)(=O)F)cc1 [4-aminoethylbenzenesulfonyl fluoride]
cyt c [1, 11]: −0.485 | nucOX [2, 11]: −0.045 | MTT [3, 11]: −1.406 | ΔΨm [4, 11]: −0.356 | GE-HTS [5, 11]: −0.016 | ROS [6, 11]: 1.081 | Viability [7, 11]: −0.304 | mitoOX [8, 11]: 0.018

C=CC(C1=CC(=O)C(OC)=CC1=O)c1ccc(O)cc1 (stereo not drawn) [4-methoxy-4′-hydroxy-dalbergione]
cyt c [1, 12]: 0.803 | nucOX [2, 12]: −1.406 | MTT [3, 12]: −0.877 | ΔΨm [4, 12]: 0.406 | GE-HTS [5, 12]: −1.401 | ROS [6, 12]: 0.639 | Viability [7, 12]: 1.548 | mitoOX [8, 12]: −1.071

COc1ccccc1-c1cc(=O)c2c(OC)cccc2o1 [5,2′-dimethoxyflavone]
cyt c [1, 9]: 1.046 | nucOX [2, 9]: −0.881 | MTT [3, 9]: −0.219 | ΔΨm [4, 9]: 1.002 | GE-HTS [5, 9]: −0.862 | ROS [6, 9]: 0.645 | Viability [7, 9]: −0.228 | mitoOX [8, 9]: −0.607
